The values below come from PubChem BioAssay AID1259407 (Chemical Carcinogenesis Research Information System (CCRIS), 2018).

For the series, the system named is CCRIS mutagenicity, Ames/micronucleus/aberration tests. Nature of the series: CCRIS mutagenicity studies.
Setting [1] is: Test System: AMES SALMONELLA TYPHIMURIUM, Strain/Indicator: TA100, Metabolic Activation: NONE, Method: STANDARD PLATE.
Where [2] appears, read: Test System: AMES SALMONELLA TYPHIMURIUM, Strain/Indicator: TA98, Metabolic Activation: NONE, Method: STANDARD PLATE.
Where [3] appears, read: Test System: AMES SALMONELLA TYPHIMURIUM, Strain/Indicator: TA98, Metabolic Activation: RAT, LIVER, S-9, AROCLOR 1254, Method: STANDARD PLATE.
Setting [4] is: Test System: AMES SALMONELLA TYPHIMURIUM, Strain/Indicator: TA100, Metabolic Activation: RAT, LIVER, S-9, AROCLOR 1254, Method: STANDARD PLATE.

Activity calls are given as the source filed them. The rule behind the calls is not given here.

Regarding `Nc1nc(=O)n([C@H]2C[C@H](O)[C@@H](CO)O2)cc1I`, the mutagenic call was “inactive; negative” (Test System: AMES SALMONELLA TYPHIMURIUM, Strain/Indicator: TA97, Metabolic Activation: NONE, Method: PREINCUBATION); “inactive; negative” (Test System: AMES SALMONELLA TYPHIMURIUM, Strain/Indicator: TA97, Metabolic Activation: RAT, LIVER, S-9, AROCLOR 1254, Method: PREINCUBATION); “inactive; negative” (Test System: AMES SALMONELLA TYPHIMURIUM, Strain/Indicator: TA98, Metabolic Activation: NONE, Method: PREINCUBATION); “inactive; negative” (Test System: AMES SALMONELLA TYPHIMURIUM, Strain/Indicator: TA98, Metabolic Activation: RAT, LIVER, S-9, AROCLOR 1254, Method: PREINCUBATION); “inactive; negative” (Test System: AMES SALMONELLA TYPHIMURIUM, Strain/Indicator: TA100, Metabolic Activation: NONE, Method: PREINCUBATION); “inactive; negative” (Test System: AMES SALMONELLA TYPHIMURIUM, Strain/Indicator: TA100, Metabolic Activation: RAT, LIVER, S-9, AROCLOR 1254, Method: PREINCUBATION). In addition, the mutagenic call is “inactive; negative” (Test System: AMES SALMONELLA TYPHIMURIUM, Strain/Indicator: TA102, Metabolic Activation: NONE, Method: PREINCUBATION); “inactive; negative” (Test System: AMES SALMONELLA TYPHIMURIUM, Strain/Indicator: TA102, Metabolic Activation: RAT, LIVER, S-9, AROCLOR 1254, Method: PREINCUBATION); “inactive; negative” (Test System: AMES SALMONELLA TYPHIMURIUM, Strain/Indicator: TA104, Metabolic Activation: NONE, Method: PREINCUBATION); “inactive; negative” (Test System: AMES SALMONELLA TYPHIMURIUM, Strain/Indicator: TA104, Metabolic Activation: RAT, LIVER, S-9, AROCLOR 1254, Method: PREINCUBATION); “inactive; negative” (Test System: AMES SALMONELLA TYPHIMURIUM, Strain/Indicator: TA1535, Metabolic Activation: NONE, Method: PREINCUBATION); “inactive; negative” (Test System: AMES SALMONELLA TYPHIMURIUM, Strain/Indicator: TA1535, Metabolic Activation: RAT, LIVER, S-9, AROCLOR 1254, Method: PREINCUBATION). Further, the mutagenic call runs as follows: (Test System: AMES SALMONELLA TYPHIMURIUM, Strain/Indicator: TA1537, Metabolic Activation: NONE, Method: PREINCUBATION) “inactive; negative”; (Test System: AMES SALMONELLA TYPHIMURIUM, Strain/Indicator: TA1537, Metabolic Activation: RAT, LIVER, S-9, AROCLOR 1254, Method: PREINCUBATION) “inactive; negative”; (Test System: AMES SALMONELLA TYPHIMURIUM, Strain/Indicator: TA1538, Metabolic Activation: NONE, Method: PREINCUBATION) “inactive; negative”; (Test System: AMES SALMONELLA TYPHIMURIUM, Strain/Indicator: TA1538, Metabolic Activation: RAT, LIVER, S-9, AROCLOR 1254, Method: PREINCUBATION) “inactive; negative”; (Test System: CHINESE HAMSTER V-79, Strain/Indicator: V-79/8-AZAGUANINE, Metabolic Activation: NONE) “inactive; negative”.

As for `C1CCC(C(CC2CCCCN2)C2CCCCC2)CC1` (stereo not given), the mutagenic call reads like this: (Test System: AMES SALMONELLA TYPHIMURIUM, Strain/Indicator: TA100(FR1), Metabolic Activation: NONE, Method: STANDARD PLATE) “inactive; negative”; (Test System: AMES SALMONELLA TYPHIMURIUM, Strain/Indicator: TA100(FR1), Metabolic Activation: RAT, LIVER, S-9, PHENOBARBITAL AND 3-METHYLCHOLANTHRENE, Method: STANDARD PLATE) “inactive; negative”; under setting [1], “inactive; negative”; (Test System: AMES SALMONELLA TYPHIMURIUM, Strain/Indicator: TA100, Metabolic Activation: RAT, LIVER, S-9, PHENOBARBITAL AND 3-METHYLCHOLANTHRENE, Method: STANDARD PLATE) “inactive; negative”; (Test System: CHINESE HAMSTER V-79, Strain/Indicator: V-79/6-THIOGUANINE, Metabolic Activation: NONE) “inactive; negative”; (Test System: CHINESE HAMSTER V-79, Strain/Indicator: V-79/6-THIOGUANINE, Metabolic Activation: RAT, LIVER, HEPATOCYTES) “active; positive”. The mutagenic call runs as follows: (Test System: CHINESE HAMSTER V-79, Strain/Indicator: V-79/OUABAIN, Metabolic Activation: NONE) “inactive; negative”; (Test System: CHINESE HAMSTER V-79, Strain/Indicator: V-79/OUABAIN, Metabolic Activation: RAT, LIVER, HEPATOCYTES) “inactive; negative”.

Consider `COc1cc(N)c(OC)cc1N`, for which the mutagenic call is, setting by setting: under setting [2], “inactive; negative”; under setting [3], “active; positive”; under setting [1], “inactive; negative”; under setting [4], “active; positive”; (Test System: AMES SALMONELLA TYPHIMURIUM, Strain/Indicator: TA1535, Metabolic Activation: NONE, Method: STANDARD PLATE) “inactive; negative”; (Test System: AMES SALMONELLA TYPHIMURIUM, Strain/Indicator: TA1535, Metabolic Activation: RAT, LIVER, S-9, AROCLOR 1254, Method: STANDARD PLATE) “inactive; negative”. Moreover, the mutagenic call is, setting by setting: (Test System: AMES SALMONELLA TYPHIMURIUM, Strain/Indicator: TA1537, Metabolic Activation: NONE, Method: STANDARD PLATE) “inactive; negative”; (Test System: AMES SALMONELLA TYPHIMURIUM, Strain/Indicator: TA1537, Metabolic Activation: RAT, LIVER, S-9, AROCLOR 1254, Method: STANDARD PLATE) “active; positive”; (Test System: AMES SALMONELLA TYPHIMURIUM, Strain/Indicator: TA1538, Metabolic Activation: NONE, Method: STANDARD PLATE) “active; positive”; (Test System: AMES SALMONELLA TYPHIMURIUM, Strain/Indicator: TA1538, Metabolic Activation: RAT, LIVER, S-9, AROCLOR 1254, Method: STANDARD PLATE) “active; positive”.

Consider `CC(=O)Nc1ccc(N=Nc2ccc(N(C)C)cc2)cc1`, for which the mutagenic call runs as follows: (Test System: AMES SALMONELLA TYPHIMURIUM, Strain/Indicator: TA98, Metabolic Activation: RAT, LIVER, S-9, POLYCHLORINATED BIPHENYLS, Method: PREINCUBATION) “active; positive”; (Test System: AMES SALMONELLA TYPHIMURIUM, Strain/Indicator: TA100, Metabolic Activation: RAT, LIVER, S-9, POLYCHLORINATED BIPHENYLS, Method: PREINCUBATION) “inactive; negative”.

On to `CN(C)c1ccc(C(=C2C=CC(=N)C=C2)c2ccc(N(C)C)cc2)cc1`, for which the mutagenic call was “inactive; negative” (Test System: AMES SALMONELLA TYPHIMURIUM, Strain/Indicator: TA97, Metabolic Activation: NONE, Method: STANDARD PLATE); “inactive; negative” (Test System: AMES SALMONELLA TYPHIMURIUM, Strain/Indicator: TA97, Metabolic Activation: RAT, LIVER, S-9, AROCLOR 1254, Method: STANDARD PLATE); “inactive; negative” under setting [2]; “inactive; negative” under setting [3]; “inactive; negative” under setting [1]; “inactive; negative” under setting [4]. Besides, the mutagenic call (Test System: AMES SALMONELLA TYPHIMURIUM, Strain/Indicator: TA104, Metabolic Activation: NONE, Method: STANDARD PLATE) is “inactive; negative” and the mutagenic call (Test System: AMES SALMONELLA TYPHIMURIUM, Strain/Indicator: TA104, Metabolic Activation: RAT, LIVER, S-9, AROCLOR 1254, Method: STANDARD PLATE) is “inactive; negative”.

For `CN(C)C(=N)N=C(N)N`, the mutagenic call (End Point: In vivo micronucleus, Test System: Bone marrow erythrocytes, Species: Mouse, Strain/Sex: Swiss albino/Male, Route: Oral) was “inactive; negative”.

`O=[N+]([O-])c1ccc2ccc3c4c(cc5ccc1c2c53)C=C[C@H](O)[C@H]4O`: the mutagenic call runs as follows: (Test System: AMES SALMONELLA TYPHIMURIUM, Strain/Indicator: TA98, Metabolic Activation: NONE) “active; positive”; (Test System: AMES SALMONELLA TYPHIMURIUM, Strain/Indicator: TA98, Metabolic Activation: RAT, LIVER, S-9, AROCLOR 1254) “active; positive”; (Test System: CHINESE HAMSTER OVARY, Strain/Indicator: CHO-K1-BH4 (HGPRT), Metabolic Activation: NONE) “inactive; negative”; (Test System: CHINESE HAMSTER OVARY, Strain/Indicator: CHO-K1-BH4 (HGPRT), Metabolic Activation: RAT, LIVER, S-9, 3-METHYLCHOLANTHRENE) “inactive; negative”.
